Assay results from US20220323406A1, “METHODS AND COMPOSITIONS FOR DIFFERENTIATING STEM CELLS” (Massachusetts Institute of Technology, priority 2019, published 2022).

How the values were obtained:
[1] = test system: ENR+CD organoids (ISC to Paneth cell differentiation); assay: Secondary (validation) screen: LYZ.NS basal lysozyme secretion, 2.5-D 384-well ENR+CD organoids; assay type: cell-based, mouse; settings: 6-day ENR+CD, vs ENR+CD+DMSO
Method: (§1) Drugs were tested at a narrowed dose range around each treatment's identified optimal dose from the primary screen (4× below, 2× above and below).
(§2) High-throughput screening.
(§3) Secondary lysozyme secretion assay screen. Confirmatory secondary screening with primary hits was performed using the above 384-well plate method. The screen was conducted with 4-plate replicates with a base media of ENR+CD. Media was supplemented with compound at day 0 and day 3 (n=8 well replicates per dose) at four different doses: two-fold above, two-fold below, and four-fold below the optimal final dose for each respective treatment. Additionally, each plate carried a large number of ENR+DMSO or ENR+CD+DMSO (vehicle) control wells (n=100 for ATP, and n=25 for LYZ.NS and LYZ.S) for robust normalization. ATP, non-stimulated lysozyme activity and CCh-stimulated lysozyme activity was again measured and the collected data was again processed in a custom R-script, per primary screen with slight modification. Values were log10 transformed, and a plate-wise FC was calculated for each well based on the median value of ENR+CD+DMSO (vehicle) control wells to normalize plate to plate variability.

ENR+CD organoids [2] = assay: Secondary (validation) screen: ATP (CTG) assay, 2.5-D 384-well ENR+CD organoids; assay type: cell-based, mouse; settings: 6-day ENR+CD, vs ENR+CD+DMSO
Method: as §1, §2, §3

[3] = test system: ENR+CD organoids (ISC to Paneth cell differentiation); assay: Primary screen: basal (non-stimulated) lysozyme secretion LYZ.NS, 2.5-D 384-well ENR+CD organoid differentiation; assay type: cell-based, mouse
Excerpt: as §2

ENR+CD organoids [4] = assay: Primary screen: ATP (CellTiter-Glo 3D, CTG) cell number/viability, 2.5-D 384-well ENR+CD organoids;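 note: compounds given at plating and again on day 3 over a 6-day differentiation from ENR+CV stem-cell-enriched precursors, ATP measured on day 6, plate median as control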
[5] = test system: ENR+CD organoids (ISC to Paneth cell differentiation); assay: Secondary (validation) screen: LYZ.S CCh-stimulated lysozyme secretion, 2.5-D 384-well ENR+CD organoids; assay type: cell-based, mouse; settings: 6-day ENR+CD, vs ENR+CD+DMSO
Method: as §1, §2, §3

[6] = test system: ENR+CD organoids (ISC to Paneth cell differentiation); assay: Primary screen: CCh-stimulated lysozyme secretion LYZ.S, 2.5-D 384-well ENR+CD organoid differentiation; assay type: cell-based, mouse; settings: primary screen
Excerpt: as §2

[7] = primary screen, standard z score, dose 0.08 uM
[8] = primary screen, standard z score, dose 0.40 uM
[9] = primary screen, standard z score, dose 2.00 uM
[10] = primary screen, standard z score, dose 10.00 uM
[11] = primary screen, dose 0.08 uM, standard z score
[12] = primary screen, dose 0.40 uM, standard z score
[13] = primary screen, dose 2.00 uM, standard z score
[14] = primary screen, dose 10.00 uM, standard z score
[15] = primary screen; dose 0.08 uM; FC vs plate median
[16] = primary screen; dose 0.40 uM; FC vs plate median
[17] = primary screen; dose 2.00 uM; FC vs plate median
[18] = primary screen; dose 10.00 uM; FC vs plate median

## NC1(Cc2ccc(Cl)cc2)CCN(c2ncnc3[nH]ccc23)CC1 [CCT128930]
[1]; 0.02 uM
  Dose.FC.LYZ.NS: −0.241 log2 fold change
  Z.LYZ.NS: −1.927
  repSSMD.LYZ.NS: −2.551
[1]; 0.04 uM
  Dose.FC.LYZ.NS: −0.020 log2 fold change
  Z.LYZ.NS: −0.164
  repSSMD.LYZ.NS: −0.204
[1]; 0.08 uM
  Dose.FC.LYZ.NS: 0.031 log2 fold change
  Z.LYZ.NS: 0.248
  repSSMD.LYZ.NS: 0.366
[1]; […]
  Dose.FC.LYZ.NS: −0.160 log2 fold change
ENR+CD organoids [2]; 0.02 uM
  Dose.FC.CTG: −0.117 log2 fold change
  Z.CTG: −1.054
  repSSMD.CTG: −0.787
ENR+CD organoids [2]; 0.04 uM
  Dose.FC.CTG: 0.122 log2 fold change
  Z.CTG: 1.101
  repSSMD.CTG: 0.922
ENR+CD organoids [2]; 0.08 uM
  Dose.FC.CTG: 0.166 log2 fold change
  Z.CTG: 1.494
  repSSMD.CTG: 1.047
ENR+CD organoids [2]; […]
  Dose.FC.CTG: −0.088 log2 fold change
[3]; primary screen, dose 0.08 uM
  Dose.FC.LYZ.NS: 0.323 log2 fold change
[3]; primary screen, dose 0.40 uM
  Dose.FC.LYZ.NS: −0.018 log2 fold change
[3]; primary screen, dose 2.00 uM
  Dose.FC.LYZ.NS: 0.073 log2 fold change
[3]; primary screen, dose 10.00 uM
  Dose.FC.LYZ.NS: −0.150 log2 fold change
[3]; [7]
  Z.LYZ.NS: 2.811
[3]; [8]
  Z.LYZ.NS: −0.154
[3]; [9]
  Z.LYZ.NS: 0.633
[3]; [10]
  Z.LYZ.NS: −1.307
ENR+CD organoids [4]; primary screen, dose 0.08 uM
  Dose.FC.CTG: 0.095 log2 fold change
ENR+CD organoids [4]; primary screen, dose 0.40 uM
  Dose.FC.CTG: −0.025 log2 fold change
ENR+CD organoids [4]; primary screen, dose 2.00 uM
  Dose.FC.CTG: 0.127 log2 fold change
ENR+CD organoids [4]; primary screen, dose 10.00 uM
  Dose.FC.CTG: −0.175 log2 fold change
ENR+CD organoids [4]; [7]
  Z.CTG: 0.228
ENR+CD organoids [4]; [8]
  Z.CTG: −0.060
ENR+CD organoids [4]; [9]
  Z.CTG: 0.304
ENR+CD organoids [4]; [10]
  Z.CTG: −0.418
[5]; 0.02 uM
  Dose.FC.LYZ.S: −0.319 log2 fold change
  Z.LYZ.S: −2.445
  repSSMD.LYZ.S: −3.825
[5]; 0.04 uM
  Dose.FC.LYZ.S: −0.014 log2 fold change
  Z.LYZ.S: −0.108
  repSSMD.LYZ.S: −0.157
[5]; 0.08 uM
  Dose.FC.LYZ.S: 0.005 log2 fold change
  Z.LYZ.S: 0.041
  repSSMD.LYZ.S: 0.069
[5]; […]
  Dose.FC.LYZ.S: −0.217 log2 fold change
[6]; dose 0.08 uM
  Dose.FC.LYZ.S: 0.266 log2 fold change
[6]; dose 0.40 uM
  Dose.FC.LYZ.S: −0.007 log2 fold change
[6]; dose 2.00 uM
  Dose.FC.LYZ.S: 0.053 log2 fold change
[6]; dose 10.00 uM
  Dose.FC.LYZ.S: −0.201 log2 fold change

## CC[C@@H]1/C=C/C=C/C[C@H](C)[C@H](O)[C@](C)(O)C(=O)[C@H](C)[C@@H](O)[C@H](C)C(=O)[C@H](C)[C@@H](O)[C@H](C)/C=C/C(=O)O[C@H]2[C@@H](C)[C@@H](CC1)O[C@@]1(CC[C@@H](C)[C@@H](C[C@H](C)O)O1)[C@@H]2C [Oligomycin A]
[3]; [11]
  Z.LYZ.NS: −1.778
[3]; [12]
  Z.LYZ.NS: −2.013
[3]; [13]
  Z.LYZ.NS: −1.857
[3]; [14]
  Z.LYZ.NS: −1.943
[3]; [15]
  Dose.FC.LYZ.NS: −0.204 log2 fold change
[3]; [16]
  Dose.FC.LYZ.NS: −0.231 log2 fold change
[3]; [17]
  Dose.FC.LYZ.NS: −0.213 log2 fold change
[3]; [18]
  Dose.FC.LYZ.NS: −0.223 log2 fold change
ENR+CD organoids [4]; [11]
  Z.CTG: −1.581
ENR+CD organoids [4]; [12]
  Z.CTG: −1.685
ENR+CD organoids [4]; [13]
  Z.CTG: −2.261
ENR+CD organoids [4]; [14]
  Z.CTG: −2.972
ENR+CD organoids [4]; [15]
  Dose.FC.CTG: −0.662 log2 fold change
ENR+CD organoids [4]; [16]
  Dose.FC.CTG: −0.706 log2 fold change
ENR+CD organoids [4]; [17]
  Dose.FC.CTG: −0.946 log2 fold change
ENR+CD organoids [4]; [18]
  Dose.FC.CTG: −1.244 log2 fold change
[6]; dose 0.08 uM, FC vs plate median
  Dose.FC.LYZ.S: −0.243 log2 fold change
[6]; dose 0.40 uM, FC vs plate median
  Dose.FC.LYZ.S: −0.274 log2 fold change
[6]; dose 2.00 uM, FC vs plate median
  Dose.FC.LYZ.S: −0.269 log2 fold change
[6]; dose 10.00 uM, FC vs plate median
  Dose.FC.LYZ.S: −0.288 log2 fold change

## O=C(/C=C\n1cnc(-c2cc(C(F)(F)F)cc(C(F)(F)F)c2)n1)N1CC(F)(F)C1 [KPT-276]
[3]; primary screen, dose 0.08 uM
  Dose.FC.LYZ.NS (log2 fold change): 0.056
  Z.LYZ.NS (standard z score): 0.492
[3]; primary screen, dose 0.40 uM
  Dose.FC.LYZ.NS (log2 fold change): 0.086
  Z.LYZ.NS (standard z score): 0.746
[3]; primary screen, dose 2.00 uM
  Dose.FC.LYZ.NS (log2 fold change): −0.224
  Z.LYZ.NS (standard z score): −1.947
[3]; primary screen, dose 10.00 uM
  Dose.FC.LYZ.NS (log2 fold change): −0.256
  Z.LYZ.NS (standard z score): −2.230
ENR+CD organoids [4]; primary screen, dose 0.08 uM
  Dose.FC.CTG (log2 fold change): 0.167
  Z.CTG (standard z score): 0.399
ENR+CD organoids [4]; primary screen, dose 0.40 uM
  Dose.FC.CTG (log2 fold change): −0.044
  Z.CTG (standard z score): −0.104
ENR+CD organoids [4]; primary screen, dose 2.00 uM
  Dose.FC.CTG (log2 fold change): −0.413
  Z.CTG (standard z score): −0.986
ENR+CD organoids [4]; primary screen, dose 10.00 uM
  Dose.FC.CTG (log2 fold change): −0.703
  Z.CTG (standard z score): −1.680
[6]; dose 0.08 uM
  Dose.FC.LYZ.S (log2 fold change): 0.133
[6]; dose 0.40 uM
  Dose.FC.LYZ.S (log2 fold change): 0.148
[6]; dose 2.00 uM
  Dose.FC.LYZ.S (log2 fold change): −0.327
[6]; dose 10.00 uM
  Dose.FC.LYZ.S (log2 fold change): −0.361
